Results published in patent US11098056B2, “UDP glycosyltransferase inhibitors and methods of use” (GENZYME CORPORATION, priority 2018, dated 2021).
Counter-ions that a name gives are not always drawn. Each block holds one compound with its values, some of them ahead of it.

Columns and labels:
UGT8 [1] = biological target: T1, UGT8 (Homo sapiens, UniProt Q16880); assay: In vitro sulfatide (SFT) synthesis inhibition in OE19 cells, LC-MS/MS readout; assay type: cell-based; conditions: 72 hr, sulfatide by LC-MS/MS, read-out: Potency range (IC50, In-vitro SFT)
T1 construct: host or cells: OE19 cells
T1 sequence (Q16880 21-541): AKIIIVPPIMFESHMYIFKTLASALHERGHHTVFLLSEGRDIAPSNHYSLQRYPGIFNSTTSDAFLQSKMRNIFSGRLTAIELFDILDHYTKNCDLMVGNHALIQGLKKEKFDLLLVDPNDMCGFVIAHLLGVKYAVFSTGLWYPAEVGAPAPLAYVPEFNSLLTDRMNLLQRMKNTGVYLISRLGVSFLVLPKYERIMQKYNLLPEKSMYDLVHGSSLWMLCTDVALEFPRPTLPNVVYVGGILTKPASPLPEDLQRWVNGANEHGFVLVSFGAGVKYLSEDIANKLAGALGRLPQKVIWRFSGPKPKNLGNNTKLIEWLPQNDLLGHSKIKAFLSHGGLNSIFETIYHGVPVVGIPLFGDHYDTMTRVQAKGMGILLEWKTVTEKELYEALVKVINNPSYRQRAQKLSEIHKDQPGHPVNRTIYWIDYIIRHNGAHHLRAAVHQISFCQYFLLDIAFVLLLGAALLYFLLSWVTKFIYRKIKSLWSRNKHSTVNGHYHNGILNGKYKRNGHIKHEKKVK
Procedure, shortened: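 OE19 cells, 2,500/well, exposed to compound dose-downs in triplicate for 72 hr at 37° C (screening at 10 μM final). Sulfatide quantified by LC-MS/MS (C8 UPLC, isocratic, negative-ion MRM) with C17 SFT internal standard; IC50 from concentration-response curves.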

UGT8 [2] = biological target: T2, UGT8 (Mus musculus, UniProt Q64676); assay: Acute in vivo target engagement in mouse kidney: inhibition of de novo GalCer and SFT synthesis (13C-Gal incorporation); conditions: 5 hr
T2 construct: Groups of 5 male C57Bl/6 mice, 6-9 wks of age (Charles River Laboratories); tissue Charles River Laboratories; host or cells: mouse kidney (adult C57Bl/6) and mid-/hind brain (neonatal P14-P21 mice)
T2 sequence (Q64676 21-541): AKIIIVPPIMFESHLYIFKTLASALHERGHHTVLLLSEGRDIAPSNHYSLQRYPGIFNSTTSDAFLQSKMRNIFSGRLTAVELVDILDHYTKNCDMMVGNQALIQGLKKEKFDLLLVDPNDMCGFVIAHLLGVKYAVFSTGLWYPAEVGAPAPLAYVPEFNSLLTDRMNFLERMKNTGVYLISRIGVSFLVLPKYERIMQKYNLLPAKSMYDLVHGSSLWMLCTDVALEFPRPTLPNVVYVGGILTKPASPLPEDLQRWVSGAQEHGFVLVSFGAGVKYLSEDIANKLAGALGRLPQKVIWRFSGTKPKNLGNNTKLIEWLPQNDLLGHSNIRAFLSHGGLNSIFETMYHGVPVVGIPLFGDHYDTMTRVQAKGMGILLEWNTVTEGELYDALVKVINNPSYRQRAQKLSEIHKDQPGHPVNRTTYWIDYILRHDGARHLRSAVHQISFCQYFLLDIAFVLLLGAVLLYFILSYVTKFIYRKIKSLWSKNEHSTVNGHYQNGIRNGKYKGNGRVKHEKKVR
Procedure: In vivo target engagement was initially assessed in an adult mouse kidney model assessing de novo synthesis inhibition. This model was selected because the high rate of GalCer and SFT synthesis and turnover in kidney facilitated development of an acute one-day model assessing the effect of a single administration of compound at different doses. Inhibition of de novo synthesis was determined by measuring the amount of 13C6 galactose (13C-Gal; CIL, cat #CLM-1570-pk) incorporated into GalCer and SFT.
Groups of 5 male C57Bl/6 mice, 6-9 wks of age (Charles River Laboratories) were maintained in an ALAAC-accredited vivarium with food and water ad libitum and were allowed to acclimate one week before initiating studies. Three to 5 dose groups received test article formulated in a clinically-acceptable formulation, administered by oral gavage; the control group received vehicle alone. One hr after administration of test article, animals received an intraperitoneal (i.p.) injection of 13C-Gal (3 g/kg); 5 hr after administration of test article, animals were euthanized and a kidney was removed and divided into two longitudinal samples that were snap-frozen and stored at −80° C. until processing for test article tissue exposure and lipid analysis (GalCer and SFT). Typically, brain and plasma samples were also collected for test article exposure.
(§1) Mass Spectrometer Analysis of SFT
(§2) Quantitative analysis of sphingolipids (SLs) was performed using liquid chromatography with tandem mass spectrometry analysis (LC-MS/MS). Briefly, to extract glucosylceramide (GlcCer), galactosylceramide (GalCer), and sulfatide (ST), an aliquot of 10 μL of mouse tissue homogenate (100 mg/ml in water) was mixed with 1 mL of extraction solution (0.2% Formic Acid; 5 mM Ammonium formate in (50:50) Methanol:Acetonitrile (v/v) with internal standards (IS)). C17-ST and D35 labeled C18-GalCer were used for IS. The mixtures were vortexed and centrifuged. The resulting supernatants were transferred to HPLC vials for LC-MS/MS analysis. GlcCer and GalCer were separated using a Waters Acquity UPLC and Atlantis HILIC Silica column (2.1 mm×150 mm, […], Waters Corp., Milford, Mass.) and analyzed by an API 5000 triple quadrupole mass spectrometer in MRM mode (Applied Biosystems, Foster City, Calif.). ST were analyzed using a Waters Acquity UPLC and BEH C18 column (2.1 mm×50 mm, […], Waters Corp., Milford, Mass.) and analyzed by an API 6500 triple quadrupole mass spectrometer in MRM mode (Applied Biosystems, Foster City, Calif.).

UGT8 [3] = biological target: T2, UGT8; assay: Acute in vivo target engagement in neonatal mouse brain: inhibition of de novo GalCer and SFT synthesis (13C-Gal incorporation); conditions: neonatal mouse (P14-P21) brain, 5 hr
Source text: SFT biosynthesis and turnover in the myelin of adult mice is very low, necessitating development of a short-term acute model of de novo synthesis inhibition. To do this, we took advantage of the fact that unlike primates in which most developmental myelination occurs in utero, in rodents, peak myelination occurs between postnatal day 14 (P14) and P22.
Groups of 5 neonatal mice age-matched between P14 and P21 received test article formulated in a clinically-acceptable formulation, administered by oral gavage; the control group received vehicle alone. One hr after administration of test article, animals received an i.p. injection of 13C-Gal (3 g/kg); 5 hr after administration of test article, animals were euthanized, brains were removed and dissected for recovery of mid- and hind brain which was snap-frozen and stored at −80° C. until analysis. Plasma samples were also collected for test article exposure analysis.
as §1, §2

- IC50 (UGT8 [1]): < 100 nM
- kidney GalCer % inh (UGT8 [2]; single oral dose 1 mg/kg): C (C < 40%)
- kidney Sulfatide % inh (UGT8 [2]; single oral dose 1 mg/kg): C (C < 40%)
- kidney GalCer % inh (UGT8 [2]; single oral dose 3 mg/kg): B (40% < B < 80%)
- kidney Sulfatide % inh (UGT8 [2]; single oral dose 3 mg/kg): B (40% < B < 80%)
- kidney GalCer % inh (UGT8 [2]; single oral dose 10 mg/kg): B (40% < B < 80%)
- kidney Sulfatide % inh (UGT8 [2]; single oral dose 10 mg/kg): B (40% < B < 80%)
- brain GalCer % inh (UGT8 [3]; single oral dose 3 mg/kg): B (40% < B < 80%)
- brain Sulfatide % inh (UGT8 [3]; single oral dose 3 mg/kg): B (40% < B < 80%)
- brain GalCer % inh (UGT8 [3]; single oral dose 10 mg/kg): A (A > 80%)
- brain Sulfatide % inh (UGT8 [3]; single oral dose 10 mg/kg): A (A > 80%)
- brain GalCer % inh (UGT8 [3]; single oral dose 30 mg/kg): A (A > 80%)
- brain Sulfatide % inh (UGT8 [3]; single oral dose 30 mg/kg): A (A > 80%)
Structure (SMILES): CNC(=O)c1csc2c(C(F)(F)F)cc(N3CCC(OC(=O)NC(C)C)CC3)nc12 [Example 76, 1-(3-(Methylcarbamoyl)-7-(trifluoromethyl)thieno[3,2-b]pyridin-5-yl)piperidin-4-yl isopropylcarbamate]

- kidney GalCer % inh (UGT8 [2]; single oral dose 3 mg/kg): C (C < 40%)
- kidney GalCer % inh (UGT8 [2]; single oral dose 10 mg/kg): B (40% < B < 80%)
- kidney GalCer % inh (UGT8 [2]; single oral dose 50 mg/kg): B (40% < B < 80%)
Structure (SMILES): CNC(=O)c1csc2c(C(F)(F)F)cc(N3CCC(OC(=O)NCC4CC4)CC3)nc12 [Example 475, 1-(3-(Methylcarbamoyl)-7-(trifluoromethyl)thieno[3,2-b]pyridin-5-yl)piperidin-4-yl (cyclopropylmethyl)carbamate trifluoroacetate]

- IC50 (UGT8 [1]): < 100 nM
- kidney GalCer % inh (UGT8 [2]; single oral dose 10 mg/kg): A, A, A (A > 80%)
- kidney Sulfatide % inh (UGT8 [2]; single oral dose 10 mg/kg): A, A, A (A > 80%)
- kidney GalCer % inh (UGT8 [2]; single oral dose 30 mg/kg): A, A, A (A > 80%)
- kidney Sulfatide % inh (UGT8 [2]; single oral dose 30 mg/kg): A, A, A (A > 80%)
- kidney GalCer % inh (UGT8 [2]; single oral dose 100 mg/kg): A, A, A (A > 80%)
- kidney Sulfatide % inh (UGT8 [2]; single oral dose 100 mg/kg): A, A, A (A > 80%)
Structure (SMILES): CNC(=O)c1csc2c(C(F)(F)F)cc(N3CC[C@H](OC(=O)NC(C)C)[C@@H](F)C3)nc12 [Example 496, (3S,4S)-3-Fluoro-1-(3-(methylcarbamoyl)-7-(trifluoromethyl)thieno[3,2-b]pyridin-5-yl)piperidin-4-yl isopropylcarbamate]

- IC50 (UGT8 [1]): < 100 nM
- kidney GalCer % inh (UGT8 [2]; single oral dose 1 mg/kg): C (C < 40%)
- kidney Sulfatide % inh (UGT8 [2]; single oral dose 1 mg/kg): C (C < 40%)
- kidney GalCer % inh (UGT8 [2]; single oral dose 3 mg/kg): C (C < 40%)
- kidney Sulfatide % inh (UGT8 [2]; single oral dose 3 mg/kg): C (C < 40%)
- kidney GalCer % inh (UGT8 [2]; single oral dose 10 mg/kg): B (40% < B < 80%)
- kidney Sulfatide % inh (UGT8 [2]; single oral dose 10 mg/kg): A (A > 80%)
Structure (SMILES): CNC(=O)c1csc2c(C(F)(F)F)cc(N3CCC(OC(=O)N[C@@H](C)CF)CC3)nc12 [Example 693, [1-[3-(Methylcarbamoyl)-7-(trifluoromethyl)thieno[3,2-b]pyridin-5-yl]-4-piperidyl] N-[(1S)-2-fluoro-1-methyl-ethyl]carbamate]

- IC50 (UGT8 [1]): > 1000 nM
Structure (SMILES): CNC(=O)c1csc2c(C(F)(F)F)cc(N3CCC(NC(=O)O[C@H]4CCN(C)[C@H]4C)CC3)nc12 [Example 809, (2S,3S)-1,2-Dimethylpyrrolidin-3-yl (1-(3-(methylcarbamoyl)-7-(trifluoromethyl)thieno[3,2-b]pyridin-5-yl)piperidin-4-yl)carbamate]

- IC50 (UGT8 [1]): < 100 nM
Structure (SMILES): CNC(=O)c1csc2c(C(F)(F)F)cc(N3CCC(NC(=O)OC(C)C)CC3)nc12 [Example 816, Isopropyl (1-(3-(methylcarbamoyl)-7-(trifluoromethyl)thieno[3,2-b]pyridin-5-yl)piperidin-4-yl)carbamate]

- IC50 (UGT8 [1]): 100 to 1000 nM
Structure (SMILES): CNC(=O)c1csc2c(C(F)(F)F)cc(O[C@H]3C[C@@H](OC(=O)NC4COC4)C3)nc12 [Example 822, (+/−)-cis-(1S,3S)-3-((3-(Methylcarbamoyl)-7-(trifluoromethyl)thieno[3,2-b]pyridin-5-yl)oxy)cyclobutyl oxetan-3-ylcarbamate]

- IC50 (UGT8 [1]): 100 to 1000 nM
Structure (SMILES): CNC(=O)c1csc2c(C(F)(F)F)cc(OC3CCN(C(=O)OC4CN(C)CC4F)CC3)nc12 (stereo not shown) [Example 835, 4-Fluoro-1-methylpyrrolidin-3-yl 4-((3-(methylcarbamoyl)-7-(trifluoromethyl)thieno[3,2-b]pyridin-5-yl)oxy)piperidine-1-carboxylate]

Structure (SMILES): CNC(=O)c1csc2c(C(F)(F)F)cc(OC3CC4(C3)CN(C(=O)O[C@@H](C)COC(F)(F)F)C4)nc12 [Example 853, (S)-1-(Trifluoromethoxy)propan-2-yl 6-((3-(methylcarbamoyl)-7-(trifluoromethyl)thieno[3,2-b]pyridin-5-yl)oxy)-2-azaspiro[3.3]heptane-2-carboxylate]
- IC50 (UGT8 [1]): < 100 nM

- IC50 (UGT8 [1]): < 100 nM
Structure (SMILES): CNC(=O)c1csc2c(C(F)(F)F)cc(O[C@H]3CCN(C(=O)OC[C@@H](C)OC(F)(F)F)C3)nc12 [Example 858, (R)-2-(Trifluoromethoxy)propyl (S)-3-((3-(methylcarbamoyl)-7-(trifluoromethyl)thieno[3,2-b]pyridin-5-yl)oxy)pyrrolidine-1-carboxylate]

- IC50 (UGT8 [1]): < 100 nM
Structure (SMILES): CNC(=O)c1csc2c(C(F)(F)F)c(C)c(O[C@@H]3CCN(C(=O)O[C@@H](C)C4CC4)[C@H](C)C3)nc12 [Example 866, (S)-1-Cyclopropylethyl (2R,4R)-2-methyl-4-((6-methyl-3-(methylcarbamoyl)-7-(trifluoromethyl)thieno[3,2-b]pyridin-5-yl)oxy)piperidine-1-carboxylate]
